pEC50: −log10 of the molar value.
How the values were obtained:
RORγ-LBD = biological target: T1, RORγ-LBD (Homo sapiens, UniProt P51449); test: RORγ-Ligand Binding Domain (LBD) TR-FRET Assay; type: biochemical;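 for TR-FRET Assay Max Response: 665/615 nm ratio relative to signal without ursolic acid or compound set at 100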
T1 construct: made in house; host or cells: SF9 cells (baculovirus)
T1 sequence (P51449 269-508 limits assumed): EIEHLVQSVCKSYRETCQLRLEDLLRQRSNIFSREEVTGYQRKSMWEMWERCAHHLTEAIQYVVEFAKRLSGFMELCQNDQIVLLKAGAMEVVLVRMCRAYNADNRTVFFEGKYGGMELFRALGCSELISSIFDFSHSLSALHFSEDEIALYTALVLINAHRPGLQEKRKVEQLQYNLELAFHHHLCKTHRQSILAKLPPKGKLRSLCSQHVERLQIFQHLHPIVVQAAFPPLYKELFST
How it was run: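 SF9 lysate containing His-RORγ-LBD, ~3 nM final; coactivator peptide biotin-SRC1 LXXLL, 200 nM final; ursolic acid 2 μM final; DMSO 1% final; Tris pH 7.0 buffer with KCl, EDTA, DTT, BSA. TR-FRET format.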

Gal4-RORγ-LBD = biological target: T2, Gal4-RORγ-LBD (Homo sapiens, UniProt P51449); test: Gal4-RORγ Luciferase Reporter Assay in HEK-293T Cells; type: cell-based; conditions: HEK-293 cells, 2 μM ursolic acid
T2 construct: expressed in transfected cells; host or cells: HEK-293 cells (pcDNA3.1neo plasmid)
T2 sequence (P51449 269-508 limits assumed): T1 sequence (P51449 269-508 limits assumed)
How it was run: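 In transfected HEK-293 cells (Gal4-RORγ-LBD, Gal4-luciferase), test agents with 2 μM ursolic acid were incubated overnight at 37 °C before luminescent detection. Values are relative to the ursolic-acid-free, compound-free signal (100).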

| Compound | pEC50 (RORγ-LBD) | TR-FRET Assay Max Response (RORγ-LBD) | pEC50 (Gal4-RORγ-LBD) | Gal4-RORγ Assay Max Response (Gal4-RORγ-LBD) |
| --- | --- | --- | --- | --- |
| O=C(O)[C@H]1C[C@H](C[C@H]2CN(S(=O)(=O)c3cccc(C(F)(F)F)c3)c3cc(-c4cc(F)ccc4F)ccc3O2)C1 [Compound 60A, (1S,3r)-3-(((S)-6-(2,5-difluoro-phenyl)-4-((3-(trifluoromethyl)-phenyl)sulfonyl)-3,4-dihydro-2H-benzo[b][1,4]oxazin-2-yl)methyl)cyclobutane-1-carboxylic acid] | > 6.30 | *** (The symbol “***” indicates a value in the range of greater than 150 to 200) | > 6.30 | ** (The symbol “**” indicates a value in the range of greater than 90 to 150) |
| O=C(O)[C@H]1C[C@H](C[C@H]2CN(S(=O)(=O)c3cccc(C(F)(F)F)c3)c3cc(-c4cc(F)cc(F)c4Cl)ccc3O2)C1 [Compound 60B, (1S,3r)-3-(((S)-6-(2-chloro-3,5-difluorophenyl)-4-((3-(trifluoro-methyl)phenyl)sulfonyl)-3,4-dihydro-2H-benzo[b][1,4]oxazin-2-yl)methyl)cyclobutane-1-carboxylic acid] | > 6.30 | *** (The symbol “***” indicates a value in the range of greater than 150 to 200) | > 6.30 | ** (The symbol “**” indicates a value in the range of greater than 90 to 150) |
| O=C(O)[C@H]1C[C@H](C[C@H]2CN(S(=O)(=O)c3cccc(C(F)(F)F)c3)c3cc(-c4cccc(C(F)(F)F)n4)ccc3O2)C1 [Compound 60C, (1S,3r)-3-(((S)-4-((3-(trifluoro-methyl)phenyl)sulfonyl)-6-(6-(trifluoromethyl)pyridin-2-yl)-3,4-dihydro-2H-benzo[b][1,4]-oxazin-2-yl)methyl)cyclobutane-1-carboxylic acid] | > 6.30 | ** (The symbol “**” indicates a value in the range of greater than 90 to 150) | > 6.30 | ** (The symbol “**” indicates a value in the range of greater than 90 to 150) |
| CC(=O)N[C@H]1C[C@H](C[C@H]2CN(S(=O)(=O)c3cccc(C(F)(F)F)c3)c3cc(-c4cc(F)cc(OC(F)F)c4)ccc3O2)C1 [Compound 60D, N-((1S,3r)-3-(((S)-6-(3-(difluoro-methoxy)-5-fluoro-phenyl)-4-((3-(trifluoro-methyl)-phenyl)sulfonyl)-3,4-dihydro-2H-benzo[b][1,4]-oxazin-2-yl)methyl)cyclo-butyl)-acetamide] | > 6.30 | *** (The symbol “***” indicates a value in the range of greater than 150 to 200) | > 6.30 | * (The symbol “*” indicates a value in the range of 25 to 90) |
| CC(=O)N[C@H]1C[C@H](C[C@H]2CN(S(=O)(=O)c3cccc(C(F)(F)F)c3)c3cc(-c4cc(F)ccc4F)ccc3O2)C1 [Compound 60E, N-((1S,3r)-3-(((S)-6-(2,5-difluorophenyl)-4-((3-(trifluoro-methyl)phenyl)sulfonyl)-3,4-dihydro-2H-benzo[b][1,4]oxazin-2-yl)methyl)cyclobutyl)-acetamide] | > 6.30 | *** (The symbol “***” indicates a value in the range of greater than 150 to 200) | > 6.30 | ** (The symbol “**” indicates a value in the range of greater than 90 to 150) |
| C[C@]1(C(=O)O)C[C@H](C[C@H]2CN(S(=O)(=O)c3cccc(C(F)(F)F)c3)c3cc(-c4cccc(C(F)(F)F)n4)ccc3O2)C1 [Compound 60N, (1S,3r)-1-methyl-3-(((S)-4-((3-(trifluoromethyl)phenyl)-sulfonyl)-6-(6-(trifluoro-methyl)pyridin-2-yl)-3,4-dihydro-2H-benzo[b][1,4]-oxazin-2-yl)methyl)cyclobutane-1-carboxylic acid] | > 6.30 | ** (The symbol “**” indicates a value in the range of greater than 90 to 150) | > 6.30 | ** (The symbol “**” indicates a value in the range of greater than 90 to 150) |
| CC1(C(=O)O)CC(C[C@H]2CN(S(=O)(=O)c3cccc(C(F)(F)F)c3)c3cc(-c4cccc(C(F)(F)F)n4)ccc3O2)C1 (stereo partly drawn) [Compound 60O, (1R,3s)-1-methyl-3-(((S)-4-((3-(trifluoromethyl)phenyl)-sulfonyl)-6-(6-(trifluoro-methyl)pyridin-2-yl)-3,4-dihydro-2H-benzo[b][1,4]-oxazin-2-yl)methyl)cyclobutane-1-carboxylic acid] | > 6.30 | *** (The symbol “***” indicates a value in the range of greater than 150 to 200) | > 6.30 | ** (The symbol “**” indicates a value in the range of greater than 90 to 150) |
| CC(=O)N1CC(C[C@H]2CN(S(=O)(=O)c3cccc(C(F)(F)F)c3)c3cc(-c4cc(F)cc(OC(F)F)c4)ccc3O2)C1 [Compound 61, (S)-1-(3-((6-(3-(difluoromethoxy)-5-fluorophenyl)-4-((3-(trifluoromethyl)phenyl)sulfonyl)-3,4-dihydro-2H-benzo[b][1,4]oxazin-2-yl)methyl)azetidin-1-yl)ethan-1-one] | > 6.30 | *** (The symbol “***” indicates a value in the range of greater than 150 to 200) | > 6.30 | ** (The symbol “**” indicates a value in the range of greater than 90 to 150) |
| CC(=O)N1CC(C[C@H]2CN(S(=O)(=O)c3cccc(C(F)(F)F)c3)c3cc(-c4cc(F)ccc4F)ccc3O2)C1 [Compound 62, (S)-1-(3-((6-(2,5-difluorophenyl)-4-((3-(trifluoromethyl)phenyl)sulfonyl)-3,4-dihydro-2H-benzo[b][1,4]oxazin-2-yl)methyl)azetidin-1-yl)ethan-1-one] | > 6.30 | ** (The symbol “**” indicates a value in the range of greater than 90 to 150) | > 6.30 | ** (The symbol “**” indicates a value in the range of greater than 90 to 150) |
| O=C(O)[C@]1(C[C@H]2CN(S(=O)(=O)c3cccc(C(F)(F)F)c3)c3cc(-c4cc(F)cc(OC(F)F)c4)ccc3O2)CCNC1=O [Compound 73, (S)-3-(((S)-6-(3-(difluoromethoxy)-5-fluorophenyl)-4-((3-(trifluoromethyl)phenyl)sulfonyl)-3,4-dihydro-2H-benzo[b][1,4]oxazin-2-yl)methyl)-2-oxopyrrolidine-3-carboxylic acid] | > 6.30 | *** (The symbol “***” indicates a value in the range of greater than 150 to 200) | > 6.30 | ** (The symbol “**” indicates a value in the range of greater than 90 to 150) |
| O=C(O)[C@@]1(C[C@H]2CN(S(=O)(=O)c3cccc(C(F)(F)F)c3)c3cc(-c4cc(F)cc(OC(F)F)c4)ccc3O2)CCNC1=O [Compound 74, (R)-3-(((S)-6-(3-(difluoromethoxy)-5-fluorophenyl)-4-((3-(trifluoromethyl)phenyl)sulfonyl)-3,4-dihydro-2H-benzo[b][1,4]oxazin-2-yl)methyl)-2-oxopyrrolidine-3-carboxylic acid] | > 6.30 | ** (The symbol “**” indicates a value in the range of greater than 90 to 150) | > 6.30 | ** (The symbol “**” indicates a value in the range of greater than 90 to 150) |
| O=C1CC[C@@](C[C@H]2CN(S(=O)(=O)c3cccc(C(F)(F)F)c3)c3cc(-c4cc(F)ccc4F)ccc3O2)(C(=O)O)N1 [Compound 75, (R)-2-(((S)-6-(2,5-difluorophenyl)-4-((3-(trifluoromethyl)phenyl)sulfonyl)-3,4-dihydro-2H-benzo[b][1,4]oxazin-2-yl)methyl)-5-oxopyrrolidine-2-carboxylic acid] | > 6.30 | ** (The symbol “**” indicates a value in the range of greater than 90 to 150) | 5.00 to 5.30 | *** (The symbol “***” indicates a value in the range of greater than 150 to 200) |
| O=C(O)[C@]1(C[C@H]2CN(S(=O)(=O)c3cccc(C(F)(F)F)c3)c3cc(-c4cc(F)ccc4F)ccc3O2)CCNC1=O [Compound 77A, (S)-3-(((S)-6-(2,5-difluorophenyl)-4-((3-(trifluoromethyl)phenyl)-sulfonyl)-3,4-dihydro-2H-benzo[b][1,4]oxazin-2-yl)methyl) 2-oxopyrrolidine-3-carboxylic acid] | > 6.30 | ** (The symbol “**” indicates a value in the range of greater than 90 to 150) | – | **** (The symbol “****” indicates a value greater than 200) |

Reference: patent US10611740B2, “Aryl dihydro-2H-benzo[b][1,4]oxazine sulfonamide and related compounds for use as agonists of RORγ and the treatment of disease” (Lycera Corporation, priority 2015, dated 2020)
